From the Deep4Chem optical property database

Assay: solvent given as SMILES
[1] = in c1ccc2c(c1)c1ccccc1n2-c1ccc(-c2ccc(-n3c4ccccc4c4ccccc43)cc2)cc1

## C1=CC2CC1C1C2[C@@]2(c3ccccc3)N=NC1(c1ccccc1)[C@@H]1C[C@H]12 (stereo not given in full)
In CC#N
  fluorescence lifetime: 216 ns

## Cn1nc(-c2ccccc2)c2n[nH]nc2/c1=N\c1ccccn1
In CC#N
  fluorescence lifetime: 0.33 ns
In CCO
  fluorescence lifetime: 0.44 ns
In Cc1ccccc1
  fluorescence lifetime: 0.34 ns

## Cc1cc(C)c(B(c2ccccc2N2c3ccccc3Oc3ccccc32)c2c(C)cc(C)cc2C)c(C)c1
In Cc1ccccc1
  fluorescence lifetime: 62 ns

## CCOC(=O)/N=c1/oc2ccc(OC)cc2cc1C#N
In ClCCl
  fluorescence lifetime: 0.3 ns

## COc1ccc(-c2c3ccccc3c(-c3ccc(OC)cc3)c3ccccc23)cc1
In ClCCl
  fluorescence lifetime: 4.4 ns

## CC(=O)N(Cc1ccccn1)c1c2ccccc2c2c3c(cccc13)C(=O)N(Cc1ccccn1)C2=O
In CCO
  fluorescence lifetime: 1.66 ns

## CCN1C(=O)C(C2C(=O)c3c4ccccc4cc4cc5ccccc5c2c34)SC1=S (stereo not given)
In C1CCOC1
  fluorescence lifetime: 11.8 ns
In CC#N
  fluorescence lifetime: 7.8 ns
In CCCCCC
  fluorescence lifetime: 12.8 ns
In Cc1ccccc1
  fluorescence lifetime: 13.2 ns
In ClCCl
  fluorescence lifetime: 10.4 ns

## c1ccc([B-]2(c3ccccc3)Oc3ccc4ccccc4c3-c3c4ccccc4cn[n+]32)cc1
In Cc1ccccc1
  fluorescence lifetime: 9.32 ns

## CC(C)(C)c1ccc2c(c1)c1cc(C(C)(C)C)ccc1n2-c1ccc(C(=CC#N)c2ccc(-n3c4ccc(C(C)(C)C)cc4c4cc(C(C)(C)C)ccc43)cc2)cc1
In Cc1ccccc1
  fluorescence lifetime: 3.86 ns

## CN(C)c1ccc2c(c1)C(=O)c1ccccc1-2
In C1CCCCC1
  fluorescence lifetime: 3.3 ns
In c1ccccc1
  fluorescence lifetime: 0.79 ns

## CCC1(CC)c2cc(B(c3c(C)cc(C)cc3C)c3c(C)cc(C)cc3C)ccc2-c2c1c1c(c3c2C(CC)(CC)c2cc(N(c4ccccc4)c4ccccc4)ccc2-3)C(CC)(CC)c2cc(B(c3c(C)cc(C)cc3C)c3c(C)cc(C)cc3C)ccc2-1
In C1CCOC1
  fluorescence lifetime: 18.1 ns

## [NH3+]C(Cc1ccc(O)cc1)C(=O)[O-] (stereo not given)
In O
  fluorescence lifetime: 3.27 ns

## N#CC1=c2cc3c4c(c2Oc2c1cc1c5c2CCCN5CCC1)CCC[N+]=4CCC3
In CCO
  fluorescence lifetime: 1.93 ns

## O=P1(c2ccccc2)c2ccc(N3c4ccccc4Oc4ccccc43)cc2-c2cc(N3c4ccccc4Oc4ccccc43)ccc21
[1]
  fluorescence lifetime: 35.1 ns

## C[Si](C)(C)C#CC1=CC2=c3cc(C#C[Si](C)(C)C)c4nc(C(F)(F)C(F)(F)C(F)(F)F)nc5c(C#C[Si](C)(C)C)cc(c3c54)C3=CC(C#C[Si](C)(C)C)=C4N=C(C(F)(F)C(F)(F)C(F)(F)F)N=C1C4C32 (stereo not given)
In C1CCOC1
  fluorescence lifetime: 2.1 ns

## COCCOCCOCCOCC(COCCOCCOCCOC)Oc1cc(/C=C/c2ccc(/C=C(\C#N)c3ccncc3)cc2)c(OC(COCCOCCOCCOC)COCCOCCOCCOC)cc1/C=C/c1ccc(/C=C(\C#N)c2ccncc2)cc1
In ClCCl
  fluorescence lifetime: 1.7 ns

## Cc1cc2ccc(-c3cccc4cccc(-c5ccc6cc(C)c(=O)oc6c5)c34)cc2oc1=O
In C1CCCCC1
  fluorescence lifetime: 0.85 ns
In CC#N
  fluorescence lifetime: 2.72 ns
In CO
  fluorescence lifetime: 5.38 ns

## CC1=C(I)C(C)=[N+]2C1=C(c1c(-c3ccccn3)nc3ccccn13)c1c(C)cc(C)n1[B-]2(F)F
In ClCCl
  fluorescence lifetime: 0.3 ns

## N#Cc1ccc(C2=Cc3ccccc3P2(=O)c2ccccc2)cc1 (stereo not given)
In ClCCl
  fluorescence lifetime: 4.8 ns

## COc1cc(OC)c(C2=C3C(C)=CC(C)=[N+]3[B-](F)(F)n3c(C)cc(C)c32)c(OC)c1
In C1CCOC1
  fluorescence lifetime: 5.7 ns
In CCCCCC
  fluorescence lifetime: 6.35 ns

## CC(C)(C)c1ccc(C2=C(c3ccc(N4c5ccccc5C(C)(C)c5ccccc54)cc3)S(=O)(=O)c3c2sc(-c2ccc(N4c5ccccc5C(C)(C)c5ccccc54)cc2)c3-c2ccc(C(C)(C)C)cc2)cc1
In C1CCOC1
  fluorescence lifetime: 1.61 ns

## CCN(CC)c1ccc2cc(-c3ccc(-c4ccc(-c5cc6ccccc6oc5=O)cc4)cc3)c(=O)oc2c1
In ClCCl
  fluorescence lifetime: 9.88 ns

## COc1ccc(-c2cnc3nn4ccccc4c3c2)cc1
In C1CCOC1
  fluorescence lifetime: 4.8 ns

## COc1cc(-c2cc(-c3ccc(C)cc3)nc3c(C#N)c(N4CCCC4)nc(N)c23)cc(OC)c1OC
In CC#N
  fluorescence lifetime: 10.7 ns
In CC(C)=O
  fluorescence lifetime: 10.4 ns
In CC(C)O
  fluorescence lifetime: 10.3 ns
In CO
  fluorescence lifetime: 8.46 ns
In ClC(Cl)Cl
  fluorescence lifetime: 12.8 ns
In ClCCl
  fluorescence lifetime: 12.6 ns
In c1ccccc1
  fluorescence lifetime: 12.5 ns

## Nc1nc2c([nH]c(=O)n2[C@H]2C[C@H](O)[C@@H](CO)O2)c(=O)[nH]1
In O
  fluorescence lifetime: 0.0008 ns

## CCCCCCN1C(=O)c2cccc3c(-c4ccc(-c5cccs5)s4)ccc(c23)C1=O
In ClC(Cl)Cl
  fluorescence lifetime: 0.564 ns

## C[Si](C)(C)c1ccc(C#N)c2ccccc12
In C1CCCCC1
  fluorescence lifetime: 11 ns

## CC(C)(C)c1cc(C(C)(C)C)c(-c2nnc(-c3ccc(-n4c5ccccc5c5ccccc54)cc3)o2)c(C(C)(C)C)c1
In CCO
  fluorescence lifetime: 2.25 ns

## COc1ccc2c(c1)c1cc(OC)ccc1n2-c1ccc2c(c1)-c1cc(-n3c4ccc(OC)cc4c4cc(OC)ccc43)ccc1P2(=O)c1ccccc1
[1]
  fluorescence lifetime: 16.7 ns

## CCc1ccc(-c2nc(-c3ccc(-n4c5ccccc5c5ccccc54)cc3)cc(-c3ccc(-n4c5ccccc5c5ccccc54)cc3)n2)cc1
In C1CCOC1
  fluorescence lifetime: 3.72 ns
In CN(C)C=O
  fluorescence lifetime: 7.1 ns
In Cc1ccccc1
  fluorescence lifetime: 2.05 ns
In ClC(Cl)Cl
  fluorescence lifetime: 3.57 ns

## C[Si]1(C)c2ccc(-c3ccc(N(c4ccccc4)c4ccccc4)cc3)cc2C=Cc2cc(-c3ccc(N(c4ccccc4)c4ccccc4)cc3)ccc21
In ClCCl
  fluorescence lifetime: 5.9 ns

## COc1ccc2c(-c3nc(-c4cccc(Br)c4)no3)cc(=O)oc2c1
In ClC(Cl)Cl
  fluorescence lifetime: 6.8 ns

## Nc1ccccc1/C=C/C(F)(F)F
In C1CCOC1
  fluorescence lifetime: 7.32 ns

## N#Cc1ccc(N)cc1
In C1CCCCC1
  fluorescence lifetime: 5.6 ns
In CC#N
  fluorescence lifetime: 2.6 ns
In CCCCCC
  fluorescence lifetime: 3.2 ns
In CCO
  fluorescence lifetime: 0.68 ns
In O
  fluorescence lifetime: 0.067 ns
In OCC(F)(F)F
  fluorescence lifetime: 0.13 ns

## C[Si]1(C)c2cc(-c3ccc(N(c4ccccc4)c4ccccc4)cc3)ccc2C=Cc2ccc(-c3ccc(N(c4ccccc4)c4ccccc4)cc3)cc21
In ClCCl
  fluorescence lifetime: 2.1 ns

## COc1cc2c(cc1-c1cccs1)Cc1c3c(c4c(c1-2)-c1cc(OC)c(-c2cccs2)cc1C4)C(=O)N(CCC(C)C)C3=O
In C1CCOC1
  fluorescence lifetime: 3.18 ns

## COC(=O)C(NC(=O)OC(C)(C)C)c1ccc2oc(-c3ccc(O)cc3O)nc2c1 (stereo not given)
In CC1CCCCC1
  fluorescence lifetime: 0.3 ns
In CC#N
  fluorescence lifetime: 1.44 ns
In CO
  fluorescence lifetime: 1.33 ns

## c1ccc2c(-n3cnc4ccccc43)cccc2c1
In C1CCCCC1
  fluorescence lifetime: 5.1 ns
In CCOC(C)=O
  fluorescence lifetime: 4.6 ns
In CO
  fluorescence lifetime: 4.3 ns

## COc1ccc(C(=Cc2ccc(C=O)cc2)c2ccc(OC)cc2)cc1
In C1CCOC1
  fluorescence lifetime: 6.7 ns

## CC(C)(C)NS(=O)(=O)c1ccc2c(c1)C(=O)/C(=C1\Sc3ccc(S(=O)(=O)NC(C)(C)C)cc3C1=O)S2
In C1COCCO1
  fluorescence lifetime: 12.4 ns
In CN(C)C=O
  fluorescence lifetime: 8.33 ns
In CS(C)=O
  fluorescence lifetime: 0.07 ns

## N#Cc1cccc(N)c1
In C1CCCCC1
  fluorescence lifetime: 2.4 ns
In CC#N
  fluorescence lifetime: 5.1 ns
In CCCCCC
  fluorescence lifetime: 1.9 ns
In CCO
  fluorescence lifetime: 6.2 ns
In O
  fluorescence lifetime: 0.045 ns
In OCC(F)(F)F
  fluorescence lifetime: 0.11 ns

## CCNc1ccc2c(c1)C(C)(C)C(=O)C=C2
In O
  fluorescence lifetime: 3.9 ns

## Cc1cc2c(ccc3c[n+](C)c(C)cc32)c[n+]1C
In CC#N
  fluorescence lifetime: 6.1 ns

## Cc1c(C(=O)c2ccccc2)c2ccc3cccc4c5cccc6ccc1c(c65)c2c34
In ClCCl
  fluorescence lifetime: 2.37 ns

## CC1=[O+][B-]2(OC(=O)C(=O)O2)OC(c2c3ccccc3cc3ccccc23)=C1
In CC#N
  fluorescence lifetime: 2.1 ns
In ClC(Cl)(Cl)Cl
  fluorescence lifetime: 1.2 ns

## Cc1cc(C)c(B(c2cc3ccc4cccc5ccc(c2)c3c45)c2c(C)cc(C)cc2C)c(C)c1
In Cc1ccccc1
  fluorescence lifetime: 49 ns

## COc1ccc(-c2csc(/C(C#N)=C/c3c(Cl)cccc3Cl)n2)cc1
In CC#N
  fluorescence lifetime: 4.07 ns

## Cc1ccc(C2=C3C=CC(/C=C/c4ccccc4)=[N+]3[B-](F)(F)n3c(/C=C/c4ccccc4)ccc32)cc1
In C1CCCCC1
  fluorescence lifetime: 4.37 ns
In C1CCOC1
  fluorescence lifetime: 4.09 ns
In C1COCCO1
  fluorescence lifetime: 4.31 ns
In CCOC(C)=O
  fluorescence lifetime: 4.77 ns
In CO
  fluorescence lifetime: 4.54 ns
In Cc1ccccc1
  fluorescence lifetime: 4.48 ns
In ClC(Cl)Cl
  fluorescence lifetime: 4.63 ns
